In patent US6362212B1, “Oxime derivative and bactericide containing the same as active ingredient” (Shionogi & Company, Ltd., priority 1994, dated 2002):

Experiments:
Format in all cases: in vivo
[1] = system: Pyricularia oryzae; conditions: foliage spray on rice seedlings (cv. […]), number of lesions six days after the inoculation
[2] = system: Sphaerotheca fuliginea; assay: Controlling effect on Sphaerotheca fuliginea by foliage application (pot experiment); conditions: foliage spray on cucumber (cv. TSUKUBASHIROIBO) first leaves, infected area after 10 days in greenhouse at 20° C.
Outline: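 First leaves of cucumber seedlings, 2-3 weeks old, were sprayed with compound (DMF solution diluted in water with spreader). They were inoculated 24 h later with a Sphaerotheca fuliginea conidia spray and kept 10 days at 20° C in a greenhouse. Percent control was calculated from infected leaf area.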

[3] = system: Erysiphe graminis f. sp. tritici; assay: Controlling effect on Erysiphe graminis f. sp. tritici by foliage application (pot experiment); conditions: foliage spray on wheat (cv. NORIN No. 61) seedlings, infected area after 10 days in greenhouse at 20° C.
Outline: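 Wheat seedlings (cv. NORIN No. 61, 2-3 weeks old) sprayed with compound in DMF diluted in water with spreader, then inoculated with conidia 24 hours later. Kept in greenhouse at 20 °C for 10 days; percent control calculated from infected leaf area.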

[4] = system: Puccinia coronata; assay: Controlling effect on Puccinia coronata by foliage application (pot experiment); conditions: foliage spray on oat (cv. PC-38) seedlings, infected area after 1 day moist chamber and 8 days greenhouse at 20° C.
Procedure: The following Test Examples illustrate the effects of the fungicide of the present invention. (I. Controlling effects on various plant diseases by foliage application (pot experiment)) A test compound was dissolved in a small amount of N,N-dimethylformamide, and the solution was diluted to a given concentration with distilled water containing a spreader. Thus, a liquid sample to be tested was prepared. The liquid sample was sprayed to test plants, and 24 hours thereafter, pathogens were inoculated by the method described below. […] The seeds of oat (cv.: PC-38) were sown in plastic cups (each 9 cm in diameter), followed by cultivation for 2 to 3 weeks. The test compound in the form of a solution or suspension was sprayed to the seedlings. Spores of Puccinia coronata cultured on oat leaves were collected, diluted about 10-fold with talc, and sprayed to the test plants to inoculate the plants with the pathogen. After the inoculation, the plants were kept in a moist chamber at 20° C. for 1 day and then in a greenhouse at 20° C. for 8 days. The infected area on the leaf was observed, and the percent control was calculated.

CON=C(c1cc(C)on1)c1ccccc1COc1cc(C)ccc1C (mixture of isomers) [Compound No. 436]
Controlling effect on PYricularia orYzae by foliage application at 500 ppm (percent control) [1]: 70 percent control | Controlling effect on Sphaerotheca fuliginea by foliage application at 500 ppm (percent control) [2]: 100 percent control | Controlling effect on ErYsiphe graminis f. sp. tritici by foliage application at 500 ppm (percent control) [3]: 90 percent control | Controllng effect on Puccinia coronata by foliage application at 500 ppm (percent control) [4]: 90 percent control

CON=C(c1ccon1)c1ccccc1COc1ccccc1C (mixture of isomers) [compound 312]
Controlling effect on PYricularia orYzae by foliage application at 500 ppm (percent control) [1]: 70 percent control | Controlling effect on Sphaerotheca fuliginea by foliage application at 500 ppm (percent control) [2]: 100 percent control | Controlling effect on ErYsiphe graminis f. sp. tritici by foliage application at 500 ppm (percent control) [3]: 100 percent control | Controllng effect on Puccinia coronata by foliage application at 500 ppm (percent control) [4]: 97 percent control

CON=C(C1=NOCC1)c1ccccc1COc1cc(C)ccc1C (mixture of isomers) [compound 1236]
Controlling effect on PYricularia orYzae by foliage application at 500 ppm (percent control) [1]: 97 percent control | Controlling effect on Sphaerotheca fuliginea by foliage application at 500 ppm (percent control) [2]: 100 percent control | Controlling effect on ErYsiphe graminis f. sp. tritici by foliage application at 500 ppm (percent control) [3]: 90 percent control | Controllng effect on Puccinia coronata by foliage application at 500 ppm (percent control) [4]: 97 percent control

CON=C(c1ccccc1COc1cc(C)ccc1C)c1nccn1C (single isomer, unassigned) [136A]
Controlling effect on PYricularia orYzae by foliage application at 500 ppm (percent control) [1]: 90 percent control | Controlling effect on Sphaerotheca fuliginea by foliage application at 500 ppm (percent control) [2]: 100 percent control | Controlling effect on ErYsiphe graminis f. sp. tritici by foliage application at 500 ppm (percent control) [3]: 90 percent control | Controllng effect on Puccinia coronata by foliage application at 500 ppm (percent control) [4]: 100 percent control

CON=C(c1ccccc1COc1cc(C)ccc1C)c1nccn1C (single isomer, unassigned) [136B]
Controlling effect on PYricularia orYzae by foliage application at 500 ppm (percent control) [1]: 70 percent control | Controlling effect on Sphaerotheca fuliginea by foliage application at 500 ppm (percent control) [2]: 100 percent control | Controlling effect on ErYsiphe graminis f. sp. tritici by foliage application at 500 ppm (percent control) [3]: 70 percent control | Controllng effect on Puccinia coronata by foliage application at 500 ppm (percent control) [4]: 97 percent control

CON=C(c1ccno1)c1ccccc1COc1cc(C)ccc1C (single isomer, unassigned) [536A]
Controlling effect on Sphaerotheca fuliginea by foliage application at 500 ppm (percent control) [2]: 100 percent control | Controlling effect on ErYsiphe graminis f. sp. tritici by foliage application at 500 ppm (percent control) [3]: 97 percent control | Controllng effect on Puccinia coronata by foliage application at 500 ppm (percent control) [4]: 90 percent control

CON=C(c1cc(C)no1)c1ccccc1COc1cc(C)ccc1C (single isomer, unassigned) [636A, 2-(2,5-dimethylphenoxymethyl)phenyl 3-methylisoxazol-5-yl ketone O-methyloxime]
Controlling effect on PYricularia orYzae by foliage application at 500 ppm (percent control) [1]: 97 percent control | pest or weed control at 500 ppm ([2]; Podosphaera fuliginea, in Cucumis sativus, foliar, 240 h, read-out: Controlling effect on Sphaerotheca fuliginea by foliage application at 500 ppm (percent control)): 97% | pest or weed control at 500 ppm ([3]; Blumeria graminis, foliar, 240 h, read-out: Controlling effect on ErYsiphe graminis f. sp. tritici by foliage application at 500 ppm (percent control)): 100% | Controllng effect on Puccinia coronata by foliage application at 500 ppm (percent control) [4]: 100 percent control

CON=C(c1cc(C)no1)c1ccccc1COc1cc(C)ccc1C (single isomer, unassigned) [636B, 2-(2,5-dimethylphenoxymethyl)phenyl 3-methylisoxazol-5-yl ketone O-methyloxime]
Controlling effect on PYricularia orYzae by foliage application at 500 ppm (percent control) [1]: 70 percent control | Controlling effect on Sphaerotheca fuliginea by foliage application at 500 ppm (percent control) [2]: 100 percent control | Controlling effect on ErYsiphe graminis f. sp. tritici by foliage application at 500 ppm (percent control) [3]: 100 percent control | Controllng effect on Puccinia coronata by foliage application at 500 ppm (percent control) [4]: 90 percent control

CON=C(c1noc(C)n1)c1ccccc1COc1cc(C)ccc1C (single isomer, unassigned) [936A]
Controlling effect on PYricularia orYzae by foliage application at 500 ppm (percent control) [1]: 97 percent control | Controlling effect on Sphaerotheca fuliginea by foliage application at 500 ppm (percent control) [2]: 100 percent control | Controlling effect on ErYsiphe graminis f. sp. tritici by foliage application at 500 ppm (percent control) [3]: 97 percent control | Controllng effect on Puccinia coronata by foliage application at 500 ppm (percent control) [4]: 90 percent control

CON=C(c1nnco1)c1ccccc1COc1ccccc1C [Compound No. 712]
Controlling effect on PYricularia orYzae by foliage application at 500 ppm (percent control) [1]: 90 percent control | Controlling effect on Sphaerotheca fuliginea by foliage application at 500 ppm (percent control) [2]: 100 percent control | Controlling effect on ErYsiphe graminis f. sp. tritici by foliage application at 500 ppm (percent control) [3]: 100 percent control | Controllng effect on Puccinia coronata by foliage application at 500 ppm (percent control) [4]: 100 percent control

CON=C(C1=NCCN1C)c1ccccc1COc1cc(C)ccc1C [Compound No. 1136]
Controlling effect on Sphaerotheca fuliginea by foliage application at 500 ppm (percent control) [2]: 100 percent control | Controlling effect on ErYsiphe graminis f. sp. tritici by foliage application at 500 ppm (percent control) [3]: 90 percent control | Controllng effect on Puccinia coronata by foliage application at 500 ppm (percent control) [4]: 90 percent control

CON=C(c1ccccc1COc1cccnc1Cl)n1ccnc1 [compound 57]
Controlling effect on Sphaerotheca fuliginea by foliage application at 500 ppm (percent control) [2]: 90 percent control | Controlling effect on ErYsiphe graminis f. sp. tritici by foliage application at 500 ppm (percent control) [3]: 70 percent control | Controllng effect on Puccinia coronata by foliage application at 500 ppm (percent control) [4]: 90 percent control

CON=C(c1ccccc1Oc1ccccc1)c1nccn1C [compound 161]
Controlling effect on Sphaerotheca fuliginea by foliage application at 500 ppm (percent control) [2]: 100 percent control | Controlling effect on ErYsiphe graminis f. sp. tritici by foliage application at 500 ppm (percent control) [3]: 70 percent control | Controllng effect on Puccinia coronata by foliage application at 500 ppm (percent control) [4]: 97 percent control

CON=C(c1ccccc1COc1ccc(Cl)cc1)n1cncn1 [compound 267]
Controlling effect on PYricularia orYzae by foliage application at 500 ppm (percent control) [1]: 90 percent control | Controlling effect on Sphaerotheca fuliginea by foliage application at 500 ppm (percent control) [2]: 100 percent control | Controlling effect on ErYsiphe graminis f. sp. tritici by foliage application at 500 ppm (percent control) [3]: 97 percent control | Controllng effect on Puccinia coronata by foliage application at 500 ppm (percent control) [4]: 90 percent control

CCON=C(c1ccccc1COc1ccccc1)n1cncn1 [compound 275]
Controlling effect on Sphaerotheca fuliginea by foliage application at 500 ppm (percent control) [2]: 100 percent control | Controlling effect on ErYsiphe graminis f. sp. tritici by foliage application at 500 ppm (percent control) [3]: 90 percent control | Controllng effect on Puccinia coronata by foliage application at 500 ppm (percent control) [4]: 90 percent control

C=CCON=C(c1ccccc1COc1ccccc1)n1cncn1 [compound 278]
Controlling effect on Sphaerotheca fuliginea by foliage application at 500 ppm (percent control) [2]: 97 percent control | Controlling effect on ErYsiphe graminis f. sp. tritici by foliage application at 500 ppm (percent control) [3]: 90 percent control | Controllng effect on Puccinia coronata by foliage application at 500 ppm (percent control) [4]: 90 percent control

C=CCON=C(c1ccccc1COc1ccccc1)n1cccn1 [compound 298]
Controllng effect on Puccinia coronata by foliage application at 500 ppm (percent control) [4]: 70 percent control

CON=C(c1noc(C)n1)c1ccccc1COc1ccc(C)cc1 [compound 914]
Controllng effect on Puccinia coronata by foliage application at 500 ppm (percent control) [4]: 97 percent control

CON=C(c1ccccc1COc1ccccc1)c1nnnn1C [compound 1001]
Controllng effect on Puccinia coronata by foliage application at 500 ppm (percent control) [4]: 70 percent control

CON=C(C1=NCCN1C)c1ccccc1COc1ccccc1C [compound 1112]
Controlling effect on PYricularia orYzae by foliage application at 500 ppm (percent control) [1]: 97 percent control | Controlling effect on Sphaerotheca fuliginea by foliage application at 500 ppm (percent control) [2]: 100 percent control | Controlling effect on ErYsiphe graminis f. sp. tritici by foliage application at 500 ppm (percent control) [3]: 90 percent control | Controllng effect on Puccinia coronata by foliage application at 500 ppm (percent control) [4]: 70 percent control

CON=C(C1=NCCN1C)c1ccccc1COc1cccc(C)c1 [compound 1113]
Controllng effect on Puccinia coronata by foliage application at 500 ppm (percent control) [4]: 70 percent control

CON=C(C1=NCCO1)c1ccccc1COc1cc(C)ccc1C [compound 1328]
Controlling effect on PYricularia orYzae by foliage application at 500 ppm (percent control) [1]: 90 percent control | Controlling effect on Sphaerotheca fuliginea by foliage application at 500 ppm (percent control) [2]: 100 percent control | Controlling effect on ErYsiphe graminis f. sp. tritici by foliage application at 500 ppm (percent control) [3]: 90 percent control | Controllng effect on Puccinia coronata by foliage application at 500 ppm (percent control) [4]: 70 percent control

CON=C(C1=NCCN1)c1ccccc1COc1cc(C)ccc1C [compound 1478]
Controlling effect on Sphaerotheca fuliginea by foliage application at 500 ppm (percent control) [2]: 70 percent control | Controlling effect on ErYsiphe graminis f. sp. tritici by foliage application at 500 ppm (percent control) [3]: 90 percent control | Controllng effect on Puccinia coronata by foliage application at 500 ppm (percent control) [4]: 70 percent control

CON=C(c1nnn(C)n1)c1ccccc1COc1ccccc1 [compound 2001]
Controlling effect on Sphaerotheca fuliginea by foliage application at 500 ppm (percent control) [2]: 70 percent control | Controllng effect on Puccinia coronata by foliage application at 500 ppm (percent control) [4]: 70 percent control
